Results reported in ChEMBL document CHEMBL1909046, “DrugMatrix in vitro pharmacology data”.

Key:
Adenosine receptor A2a = Adenosine receptor A2a (Homo sapiens, UniProt P29274); test: DRUGMATRIX: Adenosine A2A radioligand binding (ligand: […]); format: cell membranes, HEK293, Membrane; settings: hek293; Not Active = under 50% inhibition at 10 µM
[1] = molecular target: T1, Muscarinic acetylcholine receptor M5 (Homo sapiens, UniProt P08912); format: cell membranes, CHO-K1, Membrane; settings: cho-k1; note: in other assays of this panel Not Active means under 50% inhibition at 10 µM
T1 sequence (P08912 whole entry): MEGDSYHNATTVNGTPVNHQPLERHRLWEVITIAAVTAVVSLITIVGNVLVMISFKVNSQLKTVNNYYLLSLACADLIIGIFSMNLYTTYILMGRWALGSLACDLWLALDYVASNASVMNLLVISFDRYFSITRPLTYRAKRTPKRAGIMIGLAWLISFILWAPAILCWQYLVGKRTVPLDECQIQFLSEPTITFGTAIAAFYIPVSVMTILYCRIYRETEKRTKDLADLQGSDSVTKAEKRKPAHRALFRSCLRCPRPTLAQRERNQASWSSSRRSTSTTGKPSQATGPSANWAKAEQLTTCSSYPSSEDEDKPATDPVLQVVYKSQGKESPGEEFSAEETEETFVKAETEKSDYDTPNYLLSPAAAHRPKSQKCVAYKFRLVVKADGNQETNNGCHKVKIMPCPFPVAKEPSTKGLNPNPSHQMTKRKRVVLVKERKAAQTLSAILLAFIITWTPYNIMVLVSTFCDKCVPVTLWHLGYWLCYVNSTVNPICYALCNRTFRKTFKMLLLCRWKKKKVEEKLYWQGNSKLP

[2] = molecular target: 5-hydroxytryptamine receptor 4 (Cavia porcellus, UniProt O70528); format: cell membranes, Dunkin-Hartley, Striatum, Membrane; note: in other assays of this panel Not Active means under 50% inhibition at 10 µM
Chain of 5-hydroxytryptamine receptor 4 (O70528 whole entry): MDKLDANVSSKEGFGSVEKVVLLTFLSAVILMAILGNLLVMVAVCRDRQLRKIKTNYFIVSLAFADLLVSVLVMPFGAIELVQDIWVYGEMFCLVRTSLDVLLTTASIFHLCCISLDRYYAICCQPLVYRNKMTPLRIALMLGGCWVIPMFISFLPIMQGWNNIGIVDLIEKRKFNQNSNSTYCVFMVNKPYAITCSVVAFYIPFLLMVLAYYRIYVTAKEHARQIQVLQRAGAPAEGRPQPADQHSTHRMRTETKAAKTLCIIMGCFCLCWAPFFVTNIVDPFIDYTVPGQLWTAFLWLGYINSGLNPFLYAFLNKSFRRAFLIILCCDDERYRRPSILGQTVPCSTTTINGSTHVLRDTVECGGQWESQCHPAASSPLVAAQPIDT

[3] = molecular target: T2, C-X-C chemokine receptor type 1 (Homo sapiens, UniProt P25024); note: in other assays of this panel Not Active means under 50% inhibition at 10 µM
T2 sequence (P25024 whole entry): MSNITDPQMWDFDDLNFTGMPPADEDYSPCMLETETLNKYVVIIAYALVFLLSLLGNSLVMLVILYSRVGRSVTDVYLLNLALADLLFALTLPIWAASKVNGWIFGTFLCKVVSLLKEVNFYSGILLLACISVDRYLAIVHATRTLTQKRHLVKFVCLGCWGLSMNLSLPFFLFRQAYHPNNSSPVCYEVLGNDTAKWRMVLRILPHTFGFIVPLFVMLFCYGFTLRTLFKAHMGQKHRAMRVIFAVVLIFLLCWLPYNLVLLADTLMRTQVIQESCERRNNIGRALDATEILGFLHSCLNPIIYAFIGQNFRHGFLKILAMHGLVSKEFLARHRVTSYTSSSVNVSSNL

Nitric oxide synthase 1 = Nitric oxide synthase 1 (Rattus norvegicus, UniProt P29476); format: tissue-based, Cerebellum; note: in other assays of this panel Not Active means under 50% inhibition at 10 µM
Chain of Nitric oxide synthase 1 (P29476 whole entry): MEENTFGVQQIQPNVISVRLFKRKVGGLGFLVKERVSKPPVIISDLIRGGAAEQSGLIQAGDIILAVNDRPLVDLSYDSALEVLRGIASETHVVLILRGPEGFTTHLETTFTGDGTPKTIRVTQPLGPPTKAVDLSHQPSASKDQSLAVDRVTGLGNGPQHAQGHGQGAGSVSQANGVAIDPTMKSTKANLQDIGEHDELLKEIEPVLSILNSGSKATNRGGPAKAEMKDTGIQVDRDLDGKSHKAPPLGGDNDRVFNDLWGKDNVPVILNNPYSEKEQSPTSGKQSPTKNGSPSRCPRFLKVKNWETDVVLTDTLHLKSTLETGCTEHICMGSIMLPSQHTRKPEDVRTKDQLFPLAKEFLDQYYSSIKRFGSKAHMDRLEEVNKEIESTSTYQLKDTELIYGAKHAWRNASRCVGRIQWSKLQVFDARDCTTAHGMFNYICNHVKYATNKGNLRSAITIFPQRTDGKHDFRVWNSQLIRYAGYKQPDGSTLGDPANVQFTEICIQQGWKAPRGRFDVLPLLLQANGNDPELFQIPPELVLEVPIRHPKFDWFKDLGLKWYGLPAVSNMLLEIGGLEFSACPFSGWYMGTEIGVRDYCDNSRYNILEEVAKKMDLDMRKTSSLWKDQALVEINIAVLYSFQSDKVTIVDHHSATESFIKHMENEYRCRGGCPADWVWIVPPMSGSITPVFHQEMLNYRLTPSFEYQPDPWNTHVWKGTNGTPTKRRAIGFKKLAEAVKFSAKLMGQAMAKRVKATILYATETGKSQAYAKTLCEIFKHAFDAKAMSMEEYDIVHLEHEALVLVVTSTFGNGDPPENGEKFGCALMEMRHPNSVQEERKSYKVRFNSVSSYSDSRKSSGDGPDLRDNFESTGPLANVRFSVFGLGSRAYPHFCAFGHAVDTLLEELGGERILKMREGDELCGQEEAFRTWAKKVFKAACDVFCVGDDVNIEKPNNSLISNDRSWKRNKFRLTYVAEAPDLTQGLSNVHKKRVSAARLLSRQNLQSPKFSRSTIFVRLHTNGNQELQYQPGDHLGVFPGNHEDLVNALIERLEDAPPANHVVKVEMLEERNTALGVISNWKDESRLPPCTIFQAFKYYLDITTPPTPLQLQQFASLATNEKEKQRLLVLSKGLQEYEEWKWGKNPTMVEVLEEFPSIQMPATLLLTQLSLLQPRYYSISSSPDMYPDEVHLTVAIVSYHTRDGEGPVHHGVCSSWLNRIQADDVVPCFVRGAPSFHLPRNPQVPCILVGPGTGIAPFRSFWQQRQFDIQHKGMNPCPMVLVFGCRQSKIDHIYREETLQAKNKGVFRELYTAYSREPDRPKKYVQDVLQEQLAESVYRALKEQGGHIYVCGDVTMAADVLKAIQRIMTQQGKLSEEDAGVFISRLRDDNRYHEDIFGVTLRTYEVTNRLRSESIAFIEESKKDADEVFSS

Cytochrome P450 3A4 = Cytochrome P450 3A4 (Homo sapiens, UniProt P08684); settings: bti-tn-5b1-4; note: in other assays of this panel Not Active means under 50% inhibition at 10 µM
Chain of Cytochrome P450 3A4 (P08684 whole entry): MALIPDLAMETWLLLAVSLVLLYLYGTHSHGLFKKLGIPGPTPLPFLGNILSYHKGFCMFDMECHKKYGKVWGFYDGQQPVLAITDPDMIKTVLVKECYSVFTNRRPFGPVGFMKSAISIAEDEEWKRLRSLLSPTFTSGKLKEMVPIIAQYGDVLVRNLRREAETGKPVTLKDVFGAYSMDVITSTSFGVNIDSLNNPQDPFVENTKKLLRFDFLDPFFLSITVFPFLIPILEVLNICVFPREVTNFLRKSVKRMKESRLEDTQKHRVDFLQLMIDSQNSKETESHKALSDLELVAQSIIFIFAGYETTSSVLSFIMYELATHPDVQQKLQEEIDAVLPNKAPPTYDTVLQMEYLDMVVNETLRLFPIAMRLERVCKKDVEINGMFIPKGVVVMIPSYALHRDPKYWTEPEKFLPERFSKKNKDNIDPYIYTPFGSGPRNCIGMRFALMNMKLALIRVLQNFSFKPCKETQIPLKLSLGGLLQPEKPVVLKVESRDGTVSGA

[4] = molecular target: T3, Vasoactive intestinal polypeptide receptor 1 (Homo sapiens, UniProt P32241); format: cell membranes, Membrane; settings: ht-29; note: in other assays of this panel Not Active means under 50% inhibition at 10 µM
T3 sequence (P32241 whole entry): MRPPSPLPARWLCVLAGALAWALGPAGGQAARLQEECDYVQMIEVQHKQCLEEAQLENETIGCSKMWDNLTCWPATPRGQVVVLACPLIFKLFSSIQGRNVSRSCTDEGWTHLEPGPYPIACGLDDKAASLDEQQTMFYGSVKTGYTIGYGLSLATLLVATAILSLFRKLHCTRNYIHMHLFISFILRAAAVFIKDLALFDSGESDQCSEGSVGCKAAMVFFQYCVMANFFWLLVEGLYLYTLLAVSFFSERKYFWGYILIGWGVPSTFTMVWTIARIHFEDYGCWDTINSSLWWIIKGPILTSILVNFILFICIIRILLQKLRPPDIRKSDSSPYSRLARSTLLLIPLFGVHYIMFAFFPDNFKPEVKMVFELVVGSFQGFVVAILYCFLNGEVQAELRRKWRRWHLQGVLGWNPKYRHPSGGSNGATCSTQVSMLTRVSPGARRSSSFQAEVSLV

Estrogen receptor = molecular target: T4, Estrogen receptor (Homo sapiens, UniProt P03372); settings: sf9; note: in other assays of this panel Not Active means under 50% inhibition at 10 µM
T4 sequence (P03372 whole entry): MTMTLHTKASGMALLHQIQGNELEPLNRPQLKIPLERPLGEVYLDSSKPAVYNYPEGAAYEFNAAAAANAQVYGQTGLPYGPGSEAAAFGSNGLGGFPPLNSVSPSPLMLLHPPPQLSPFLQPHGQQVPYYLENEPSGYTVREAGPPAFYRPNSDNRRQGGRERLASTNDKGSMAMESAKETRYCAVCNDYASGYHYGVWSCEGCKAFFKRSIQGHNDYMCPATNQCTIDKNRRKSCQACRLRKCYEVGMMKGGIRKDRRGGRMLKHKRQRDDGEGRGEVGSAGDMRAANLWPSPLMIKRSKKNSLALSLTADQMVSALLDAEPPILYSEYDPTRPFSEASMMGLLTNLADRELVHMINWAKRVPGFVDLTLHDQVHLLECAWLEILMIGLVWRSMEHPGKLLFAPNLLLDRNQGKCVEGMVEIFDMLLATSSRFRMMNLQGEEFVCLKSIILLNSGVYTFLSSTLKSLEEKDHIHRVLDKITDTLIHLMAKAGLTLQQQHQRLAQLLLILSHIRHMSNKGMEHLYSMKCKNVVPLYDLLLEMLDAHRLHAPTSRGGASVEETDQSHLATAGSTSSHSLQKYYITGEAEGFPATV

Chain of Adenosine receptor A2a (P29274 whole entry): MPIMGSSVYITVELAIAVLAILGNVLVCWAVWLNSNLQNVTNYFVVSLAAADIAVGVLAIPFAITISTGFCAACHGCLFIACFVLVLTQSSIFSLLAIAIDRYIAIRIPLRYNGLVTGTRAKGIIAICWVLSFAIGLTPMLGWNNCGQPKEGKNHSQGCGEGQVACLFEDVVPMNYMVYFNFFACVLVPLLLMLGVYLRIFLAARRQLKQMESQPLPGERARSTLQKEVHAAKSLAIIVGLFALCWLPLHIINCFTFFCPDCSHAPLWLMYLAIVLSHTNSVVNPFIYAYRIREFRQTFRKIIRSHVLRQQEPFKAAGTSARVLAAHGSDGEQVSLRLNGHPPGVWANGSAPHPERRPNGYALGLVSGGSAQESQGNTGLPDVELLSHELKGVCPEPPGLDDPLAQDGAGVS

COBALTOUS CHLORIDE
Not Active: IC50 (Adenosine receptor A2a) | Ki (Adenosine receptor A2a) | IC50 [1] | Ki [1] | IC50 [2] | Ki [2] | IC50 [3] | Ki [3] | IC50 (Nitric oxide synthase 1) | Ki (Nitric oxide synthase 1) | IC50 (Cytochrome P450 3A4) | Ki (Cytochrome P450 3A4) | IC50 [4] | Ki [4] | IC50 (Estrogen receptor) | Ki (Estrogen receptor)

COLISTIN
Not Active: IC50 (Adenosine receptor A2a) | Ki (Adenosine receptor A2a) | IC50 [1] | Ki [1] | IC50 [2] | Ki [2] | IC50 [3] | Ki [3] | IC50 (Nitric oxide synthase 1) | Ki (Nitric oxide synthase 1) | IC50 (Cytochrome P450 3A4) | Ki (Cytochrome P450 3A4) | IC50 [4] | Ki [4] | IC50 (Estrogen receptor) | Ki (Estrogen receptor)
